From the supplement of paper PMC10307832

Columns and labels:
Experiment in all cases: relative viability (nuclei count vs DMSO), 5 days (fraction); higher = more cells survive
[1] = compound: C1=CC2=C(C=C(C(=C2N=C1)O)N=NC3=CC4=C(C=C3)C=C(C=C4)S(=O)(=O)O)S(=O)(=O)O + CS(=O)(=O)N1CCN(Cc2cc3nc(-c4cccc5[nH]ncc45)nc(N4CCOCC4)c3s2)CC1 [Pictilisib] (partner 1 µM)
Procedure, shortened: (§1)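 Lung cancer cell lines in 1536-well plates were dosed by pin tool the day after seeding, either with one drug alone or with a fixed anchor-drug dose plus five library-drug doses (not always all listed) in √10 steps. After 5 days, cells were fixed and their nuclei stained in one step (final 0.05% Triton X-100, 1% formaldehyde, 1 ug/ml Hoechst), then counted on 4× images. Relative viability is the nuclei count in treated wells divided by that in vehicle wells. Values are medians of duplicate plates.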

[2] = compound: C1=CC2=C(C=C(C(=C2N=C1)O)N=NC3=CC4=C(C=C3)C=C(C=C4)S(=O)(=O)O)S(=O)(=O)O + Nc1ncn([C@H]2C[C@H](O)[C@@H](CO)O2)c(=O)n1 [Decitabine] (partner 2 µM)
Procedure, shortened: as §1

AT-7519 + Trametinib = compound: O=C(NC1CCNCC1)c1n[nH]cc1NC(=O)c1c(Cl)cccc1Cl [AT-7519] + CC(=O)Nc1cccc(-n2c(=O)n(C3CC3)c(=O)c3c(Nc4ccc(I)cc4F)n(C)c(=O)c(C)c32)c1 [Trametinib] (partner 0.02 µM)
Procedure, shortened: as §1

AT-7519 + Crizotinib = compound: O=C(NC1CCNCC1)c1n[nH]cc1NC(=O)c1c(Cl)cccc1Cl [AT-7519] + C[C@@H](Oc1cc(-c2cnn(C3CCNCC3)c2)cnc1N)c1c(Cl)ccc(F)c1Cl [Crizotinib] (partner 1 µM)
Procedure, shortened: as §1

UMC-11
relative viability ([1]; first compound 0.08 µM): 1.05
relative viability ([1]; first compound 0.253 µM): 0.762
relative viability ([1]; first compound 0.8 µM): 0.761
relative viability ([1]; first compound 2.53 µM): 0.908
relative viability ([1]; first compound 8 µM): 0.833
relative viability ([2]; first compound 0.08 µM): 0.506
relative viability ([2]; first compound 0.253 µM): 0.644
relative viability ([2]; first compound 0.8 µM): 0.734
relative viability ([2]; first compound 2.53 µM): 0.679
relative viability ([2]; first compound 8 µM): 0.638
relative viability (AT-7519 + Trametinib; first compound 0.01 µM): 0.593
relative viability (AT-7519 + Trametinib; first compound 0.03162 µM): 0.647
relative viability (AT-7519 + Trametinib; first compound 0.3162 µM): 0.498
relative viability (AT-7519 + Trametinib; first compound 1 µM): 0.384
relative viability (AT-7519 + Crizotinib; first compound 0.01 µM): 0.677
relative viability (AT-7519 + Crizotinib; first compound 0.03162 µM): 0.539
relative viability (AT-7519 + Crizotinib; first compound 0.3162 µM): 0.302
relative viability (AT-7519 + Crizotinib; first compound 1 µM): 0.13
